Reference: ChEMBL document CHEMBL1136232, “Novel inhibitors of an emerging target in Mycobacterium tuberculosis; substituted thiazolidinones as inhibitors of dTDP-rhamnose synthesis” (2003)
≈ marks a conversion by molar mass, not a printed value. Calls of active or inactive are those of the source. The rule behind the calls is not given here.

Legend:
[1] = tested on: Mycobacterium tuberculosis; test: Percentage inhibition against Mycobacterium tuberculosis at a concentration of 20 uM; assay type: functional
[2] = tested on: Mycobacterium tuberculosis; test: Inhibitory activity against Mycobacterium tuberculosis H37Ra; assay type: functional
[3] = tested on: Mycolicibacterium smegmatis; test: Percentage inhibition against Rm1BCD at 20 uM
[4] = tested on: Mycolicibacterium smegmatis; test: Percentage inhibition against Rm1C at 20 uM
[5] = tested on: Mycolicibacterium smegmatis; test: Percentage inhibition against Rm1D at 20 uM; NA is not active
[6] = tested on: Mycolicibacterium smegmatis; test: Percentage inhibition against Rm1C at 20 uM; NA is not active
[7] = tested on: Mycolicibacterium smegmatis; test: Percentage inhibition against Rm1D at 20 uM

| Structure (SMILES) | inhibition at 20 µM [1] [%] | MIC [2] [µg/mL] | further results |
| --- | --- | --- | --- |
| CCOC(=O)C(C)N1C(=O)CSC1c1cccc(Oc2ccccc2)c1 (stereo unspecified) | 51 | 50 (≈ 135 µM) |  |
| O=C(O)C(Cc1cc2ccccc2[nH]1)N1C(=O)CSC1c1ccc(-c2ccccc2)cc1 (stereo unspecified) | 66.5 | 50 (≈ 113 µM) |  |
| CCn1c2ccccc2c2ccc(C3SCC(=O)N3C(Cc3c[nH]c4ccccc34)C(=O)OC)cc21 (stereo unspecified) |  | > 200 | inhibition [3]: 45%; inhibition [4]: 48%; inhibition [5]: inactive |
| CCOC(=O)C(C(C)C)N1C(=O)C(C)SC1c1ccc2c(c1)c1ccccc1n2CC (stereo unspecified) | 52 | 25 (≈ 57 µM) |  |
| CC[C@H](C)C(C(=O)OC)N1C(=O)CSC1c1ccc(N(C)C)cc1 (stereo partly specified) | 110 | > 200 |  |
| CCn1c2ccccc2c2cc(C3SC(C)C(=O)N3C(Cc3c[nH]c4ccccc34)C(=O)O)ccc21 (stereo unspecified) | 70.5 | 50 (≈ 100 µM) |  |
| COc1cc(C2SC(C)C(=O)N2C(Cc2ccc([N+](=O)[O-])cc2)C(=O)O)cc(OC)c1O (stereo unspecified) |  | 25 (≈ 54.1 µM) | inhibition [3]: 42%; inhibition [6]: inactive; inhibition [7]: 71% |
| COC(=O)C(CCSC)N1C(=O)CSC1c1ccc(N(C)C)cc1 (stereo unspecified) | 100 | > 200 |  |
| CCOC(=O)CCC(C(=O)OCC)N1C(=O)CSC1c1cccc(Oc2ccccc2)c1 (stereo unspecified) | 64 | 50 (≈ 109 µM) |  |
| CCOC(=O)C(C(C)C)N1C(=O)C(C)SC1c1cccc(OC)c1O (stereo unspecified) | 60 | 25 (≈ 68 µM) |  |
| CCOC(=O)C(C(C)C)N1C(=O)C(C)SC1c1ccc(-c2ccccc2)cc1 (stereo unspecified) | 52.5 | 50 (≈ 126 µM) |  |
